Assays:
[1] = test system: HIV-1AD02; assay: Anti-viral activity in TZM-bl cells, multi PI-resistant HIV-1AD02 (luciferase); format: cell-based
Protocol: (§1) Anti-viral activity was evaluated ex vivo by adding the highest non-toxic concentration of compound or 25uM RTV (Sigma) solubilized in DMSO on the day of infection by PI-sensitive (HIV-1AD) or multi (RTV and IDV) PI-resistant (HIV-1AD02) HIV-1 variants at 25 or 45 TCID50 per ml for PBMCs or TZM-bl cells, respectively. Replication was determined on post-infection day 7 in PBMC by measuring supernatant p24 antigen levels (Perkin-Elmer), or day 4 in TZM-bl cells by measuring luciferase activity using the luciferase assay system (Promega, Madison, WI) and the microplate luminometer Monolight 3096 (BD Biosciences, San Jose, CA). Inhibitory concentration (IC)50 was calculated based on anti-viral activity in TZM-bl cells with a nonlinear regression analysis (GraphPad Prism 6 Software). Reduction of viral replication by more than 50% was considered successful anti-viral activity. Combinatorial effect of drug with RTV was tested at IC50, and higher or lower concentrations than IC50.

[2] = test system: PBMCs; assay: Cell viability assay (CellTiter 96 AQueous) in PBMCs; format: cell-based, human; conditions: 200 μM, day 7
Protocol: (§2) Viability in presence of compounds was measured at day 4 or 7, TZM-bl cells or PBMCs, using CellTiter 96 AQueous one solution cell proliferation assay (Promega) following manufacturer instructions. Toxicity of compounds was defined as a concentration that produced more than 10% decline in viability of TZM-bl cells or PBMCs were viable at days 4 or 7 of exposure, respectively, compared with DMSO-treated controls.

[3] = target: T1, HIV-1 PR subtype B (Human immunodeficiency virus type 1 group M subtype B, UniProt P04585); assay: In vitro PR inhibition assay, subtype B; format: biochemical; set-up: key: [+] or [−] indicating PR inhibition or no inhibition, respectively; [+] or [−] indicating PR inhibition or no inhibition, respectively; conditions: compound at 80 μM, 37 °C
T1 construct: HIV type 1 (HIV-1) PR is a homodimeric enzyme of 99 amino acids; made in house
Protocol: (§3) The compounds were obtained from the NCI/DTP and solubilized in DMSO (Sigma) for use in HIV-1 PR inhibition assays. Cloning, expression, and purification procedures of HIV-1 PRs obtained from […] samples have been previously described elsewhere. For detailed information of mutations harbored in the multi PI-resistant HIV-1PR as compared to the PI-sensitive PR, full amino acid sequences is given in supplementary materials (Figure S1). HIV-1 PRs subtype variants were assayed kinetically at 80 μM for inhibitory activity at 37 °C using selected compounds as previously described.
(§4) We explored the hypothesis that compounds selected in silico for binding to the hinge region of PR are effective as inhibitors of HIV-1 replication, including multi-PI resistant viruses, in human cells. Our of 139,739 compounds, the top 40 highest-scoring compounds targeting the structural pockets in the hinge of the PR (Figure S1) were obtained from the NCI/DTP for use in HIV PR inhibition assays. Compounds were initially tested in vitro at 80 μM to screen for inhibitory activity against PR subtypes A, B or C. Compounds inhibiting at least one subtype of the PR were considered as candidate compounds for further experiments.

[4] = target: T2, HIV-1 PR subtype A (Human immunodeficiency virus type 1 group M subtype A, UniProt P24740); assay: In vitro PR inhibition assay, subtype A; format: biochemical; set-up: key: [+] or [−] indicating PR inhibition or no inhibition, respectively; [+] or [−] indicating PR inhibition or no inhibition, respectively; conditions: compound at 80 μM, 37 °C
T2 construct: HIV type 1 (HIV-1) PR is a homodimeric enzyme of 99 amino acids; made in house
Protocol: as §3, §4

[5] = test system: HIV-1AD; assay: Anti-viral activity alone or combined with 25 µM RTV, relative to 25 µM RTV, HIV-1AD; format: cell-based
Protocol: as §1
(§5) Combinatorial effect of drug was tested combining 25 μM RTV and higher or lower concentrations than IC50 of lead compounds. Combinations of compounds 18, 22, 27, 32 or 35 with 25 μM RTV were non-toxic in TZM-bl cells. Combination with RTV increased antiviral activity of all compounds against both PI-sensitive and PI-resistant HIV-1 variants (Figure 2).
(§6) Table S2. Fold change of compounds (18, 22, 27, 32 or 35) alone or in combination with 25 µM RTV compared to 25 µM
(§7) RTV. P values are reported in parenthesis with Bonferroni correction with significance p<0.0055; fold change >1 indicates […]
(§8) are highlighted in yellow; (-) not performed. (1) Anti-viral activity against HIV-1; (2) Compounds identification number.
(§9) Fold change of compounds compared to 25 µM RTV as reference […]

[6] = test system: TZM-bl cells; assay: Cell viability assay (CellTiter 96 AQueous) in TZM-bl cells; format: cell-based, human
Protocol: as §2

[7] = test system: HIV-1AD02; assay: Anti-viral activity alone or combined with 25 µM RTV, relative to 25 µM RTV, HIV-1AD02; format: cell-based
Protocol: as §1, §5, §6, §7, §8, §9

[8] = target: T3, HIV-1 PR subtype C (Human immunodeficiency virus type 1 group M subtype C, UniProt Q75002); assay: In vitro PR inhibition assay, subtype C; format: biochemical; set-up: key: [+] or [−] indicating PR inhibition or no inhibition, respectively; [+] or [−] indicating PR inhibition or no inhibition, respectively; conditions: compound at 80 μM, 37 °C
T3 construct: HIV type 1 (HIV-1) PR is a homodimeric enzyme of 99 amino acids; made in house
Protocol: as §3, §4

[9] = test system: HIV-1AD; assay: Anti-viral activity in TZM-bl cells, PI-sensitive HIV-1AD (luciferase); format: cell-based
Protocol: as §1

[10] = highest non-toxic concentration, day 4 luciferase

T3 sequence (Q75002 493-591): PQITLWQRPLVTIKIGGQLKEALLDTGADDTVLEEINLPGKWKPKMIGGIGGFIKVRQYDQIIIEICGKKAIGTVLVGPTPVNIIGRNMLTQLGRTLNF
T2 sequence (P24740 482-580): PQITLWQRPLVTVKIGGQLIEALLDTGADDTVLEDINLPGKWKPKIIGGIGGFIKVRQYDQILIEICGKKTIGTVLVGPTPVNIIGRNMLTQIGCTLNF

Nc1nc(N)c(N=Nc2ccc(C(=O)O)c(O)c2)c(N)n1 [Compound 18]
reduction of replication of HIV-1AD02 [1, 10]: more than 80%
IC50 ([1]; multi PI-resistant variant): 68.5 µM
reduction of cell viability [2]: 28%
Inhibition of PR subtype B [3]: +
Inhibition of PR subtype A [4]: +
Fold change compared to 25 µM RTV ([5]; compound 25 µM with 25 µM RTV): 0.54 fold
Fold change compared to 25 µM RTV ([5]; compound 50 µM with 25 µM RTV): 0.32 fold
Fold change compared to 25 µM RTV ([5]; compound 100 µM with 25 µM RTV): 0.40 fold
Fold change compared to 25 µM RTV ([5]; compound alone, 25 µM): 1.12 fold
Fold change compared to 25 µM RTV ([5]; compound alone, 50 µM): 1.13 fold
Fold change compared to 25 µM RTV ([5]; compound alone, 100 uM): 0.87 fold
toxicity (more than 10% decline in viability) ([6]; 200 μM, day 4): non-toxic
toxicity of combination with 25 μM RTV ([6]; compound combined with 25 μM RTV): non-toxic
Fold change compared to 25 µM RTV ([7]; HIV-1AD02, compound 25 µM with 25 µM RTV): 0.75 fold
Fold change compared to 25 µM RTV ([7]; HIV-1AD02, compound 50 µM with 25 µM RTV): 0.60 fold
Fold change compared to 25 µM RTV ([7]; HIV-1AD02, compound 100 µM with 25 µM RTV): 0.53 fold
Fold change compared to 25 µM RTV ([7]; HIV-1AD02, compound alone, 25 µM): 3.42 fold
Fold change compared to 25 µM RTV ([7]; HIV-1AD02, compound alone, 50 µM): 3.24 fold
Fold change compared to 25 µM RTV ([7]; HIV-1AD02, compound alone, 100 uM): 2.41 fold
Inhibition of PR subtype C [8]: +
IC50 ([9]; PI-sensitive variant): 62.7 µM
reduction of replication of HIV-1AD [9, 10]: more than 80%
